Laboratory results: patent US20190381086A1, “INHIBITION OF NEDDYLATION USING GLYCYL-tRNA SYNTHETASE INHIBITORS” (The Scripps Research Institute, priority 2015, published 2019)

Assays:
T-47D [1] = type: cell-based; details: Breast Cancer
UO-31 = type: cell-based; details: UO-31, Renal Cancer
TK-10 = type: cell-based
RXF 393 = type: cell-based; details: RXF 393, Renal Cancer
HCC-2998 [2] = type: cell-based; details: HCC-2998, Colon Cancer
[3] = mouse, in vivo
Procedure: (§1) GlySA (DMSO stock solution diluted by saline) were administrated to three month old female BALB CJ mice via tail vein injections. […] The GlySA concentration tested were 0.4 mg/kg (10 μM), 2.0 mg/kg (50 μM), 4.0 mg/kg (100 μM). N=3 for each group.
as §1, with “Animal experiments were also performed to study the use of GlySA to treat cancer. A maximum tolerant dosage assay of GlySA was conducted. GlySA (DMSO” for “GlySA (DMSO”

RPMI-8226 = test: NCI 60 Cell One-Dose Screen; type: cell-based, human; details: RPMI-8226, Leukemia; single dose 10^-5 M
MALME-3M = type: cell-based; details: Melanoma
SN12C [4] = test: NCI 60 Cell One-Dose Screen; type: cell-based, human; details: Renal Cancer, single dose 10^-5 M
A498 = type: cell-based; details: A498, Renal Cancer
HOP-62 = type: cell-based; details: HOP-62, Non-Small Cell Lung Cancer
HCC-2998 [5] = test: NCI 60 Cell One-Dose Screen; type: cell-based, human; details: HCC-2998, Colon Cancer; single dose 10^-5 M
HCT-15 = test: NCI 60 Cell One-Dose Screen; type: cell-based, human; details: HCT-15, Colon Cancer; single dose 10^-5 M
NCI-H226 = type: cell-based; details: NCI-H226, Non-Small Cell Lung Cancer
786-0 = type: cell-based; details: 786-0, Renal Cancer
MCF7 = type: cell-based; details: MCF7, Breast Cancer
NCI/ADR-RES = test: NCI 60 Cell One-Dose Screen; type: cell-based, human; details: Ovarian Cancer, single dose 10^-5 M
SN12C [6] = type: cell-based; details: Renal Cancer
HCT-116 = test: NCI 60 Cell One-Dose Screen; type: cell-based, human; details: HCT-116, Colon Cancer; single dose 10^-5 M
HL-60(TB) = type: cell-based
NCI-H23 = type: cell-based; details: NCI-H23, Non-Small Cell Lung Cancer
K-562 = test: NCI 60 Cell One-Dose Screen; type: cell-based, human; details: K-562, Leukemia; single dose 10^-5 M
SK-MEL-2 = type: cell-based; details: SK-MEL-2, Melanoma
SF-295 = type: cell-based; details: SF-295, CNS Cancer
UACC-62 = test: NCI 60 Cell One-Dose Screen; type: cell-based, human; details: UACC-62, Melanoma; single dose 10^-5 M
LOX IMVI = type: cell-based; details: Melanoma
IGROV1 = type: cell-based; details: IGROV1, Ovarian Cancer
T-47D [7] = test: NCI 60 Cell One-Dose Screen; type: cell-based, human; details: Breast Cancer, single dose 10^-5 M
[8] = Homo sapiens, read-out: LC50 (the source's name)

NCC(=O)NS(=O)(=O)OC[C@H]1O[C@@H](n2cnc3c(N)ncnc32)[C@H](O)[C@@H]1O [GlySA, glycylsulfamoyladenosine]
LC50/GI50 (T-47D [1]): >42.7
GI50 (T-47D [1]; Homo sapiens, T47D): 2340 nM
CC50 (T-47D [1]; Homo sapiens, T47D, read-out: LC50 (the source's name)): > 100000 nM
GI50 (UO-31; Homo sapiens): 1700 nM
CC50 (UO-31; [8]): 6170 nM
LC50/GI50 (UO-31): 3.6
GI50 (TK-10; Homo sapiens, TK-10): 2750 nM
CC50 (TK-10; Homo sapiens, TK-10, Renal Cancer, read-out: LC50 (the source's name)): 23400 nM
LC50/GI50 (TK-10; TK-10, Renal Cancer): 8.5
GI50 (RXF 393; Homo sapiens): 2140 nM
CC50 (RXF 393; [8]): 8320 nM
LC50/GI50 (RXF 393): 3.9
LC50/GI50 (HCC-2998 [2]): 4.6
GI50 (HCC-2998 [2]; Homo sapiens): 2040 nM
CC50 (HCC-2998 [2]; [8]): 9330 nM
survival of mice after four injections [3]: all were alive
Growth inhibition count (%) (RPMI-8226): 18.04%
GI50 (MALME-3M; Homo sapiens): 1900 nM
CC50 (MALME-3M; [8]): 7760 nM
LC50/GI50 (MALME-3M): 4.1
GI50 (OVCAR-3; Homo sapiens, OVCAR-3): 2000 nM
CC50 (OVCAR-3; Homo sapiens, OVCAR-3, read-out: LC50 (μM)): 10 µM
LC50/GI50 (OVCAR-3; OVCAR-3, Ovarian Cancer): 5.0
Growth inhibition count (%) (SN12C [4]): 1.03%
LC50/GI50 (A498): 4.1
GI50 (A498; Homo sapiens): 1580 nM
CC50 (A498; [8]): 6460 nM
LC50/GI50 (HOP-62): >269.2
GI50 (HOP-62; Homo sapiens): 372 nM
CC50 (HOP-62; [8]): > 100000 nM
Growth inhibition count (%) (HCC-2998 [5]): 41.35%
Growth inhibition count (%) (HCT-15): 11.42%
GI50 (NCI-H226; Homo sapiens): 2000 nM
CC50 (NCI-H226; [8]): 7080 nM
LC50/GI50 (NCI-H226): 3.5
LC50/GI50 (786-0): 3.8
GI50 (786-0; Homo sapiens): 1780 nM
CC50 (786-0; [8]): 6760 nM
GI50 (MCF7; Homo sapiens): 2820 nM
CC50 (MCF7; [8]): > 100000 nM
LC50/GI50 (MCF7): >35.5
Growth inhibition count (%) (NCI/ADR-RES): 2.073%
GI50 (SN12C [6]; Homo sapiens): 562 nM
CC50 (SN12C [6]; [8]): 95500 nM
LC50/GI50 (SN12C [6]): 169.8
Growth inhibition count (%) (HCT-116): 6.566%
LC50/GI50 (HL-60(TB); HL-60(TB), Leukemia): >36.3
GI50 (HL-60(TB); Homo sapiens, HL-60): 2750 nM
GI50 (NCI-H23; Homo sapiens): 2570 nM
CC50 (NCI-H23; [8]): > 100000 nM
LC50/GI50 (NCI-H23): >38.9
Growth inhibition count (%) (K-562): 7.376%
GI50 (SK-MEL-2; Homo sapiens): 2240 nM
CC50 (SK-MEL-2; [8]): 10000 nM
LC50/GI50 (SK-MEL-2): 4.5
GI50 (SF-295; Homo sapiens): 871 nM
CC50 (SF-295; [8]): 6920 nM
LC50/GI50 (SF-295): 7.9
Growth inhibition count (%) (UACC-62): 30.71%
GI50 (LOX IMVI; Homo sapiens): 1700 nM
CC50 (LOX IMVI; [8]): 7410 nM
LC50/GI50 (LOX IMVI): 4.4
GI50 (IGROV1; Homo sapiens, IGROV-1): 3020 nM
CC50 (IGROV1; Homo sapiens, IGROV-1, read-out: LC50 (the source's name)): 47900 nM
LC50/GI50 (IGROV1): 15.8
Growth inhibition count (%) (T-47D [7]): 7.656%
